Test results as given in ChEMBL document CHEMBL5653615 (J Biol Chem, 2013).

Columns and labels:
[1] = target: Receptor tyrosine-protein kinase erbB-4 (Homo sapiens) (UniProt Q15303); assay: Inhibition of human ERBB4 at 18.6 nM by HotSpot assay relative to control
[2] = target: Ribosomal protein S6 kinase beta-1 (Homo sapiens) (UniProt P23443); assay: Inhibition of human RPS6KB1 at 1.82 nM by HotSpot assay relative to control
[3] = target: MAP/microtubule affinity-regulating kinase 3 (Homo sapiens) (UniProt P27448); assay: Inhibition of human MARK3 at 1.82 nM by HotSpot assay relative to control
MAP/microtubule affinity-regulating kinase 3 (Homo sapiens), sequence (P27448 whole entry, looked up): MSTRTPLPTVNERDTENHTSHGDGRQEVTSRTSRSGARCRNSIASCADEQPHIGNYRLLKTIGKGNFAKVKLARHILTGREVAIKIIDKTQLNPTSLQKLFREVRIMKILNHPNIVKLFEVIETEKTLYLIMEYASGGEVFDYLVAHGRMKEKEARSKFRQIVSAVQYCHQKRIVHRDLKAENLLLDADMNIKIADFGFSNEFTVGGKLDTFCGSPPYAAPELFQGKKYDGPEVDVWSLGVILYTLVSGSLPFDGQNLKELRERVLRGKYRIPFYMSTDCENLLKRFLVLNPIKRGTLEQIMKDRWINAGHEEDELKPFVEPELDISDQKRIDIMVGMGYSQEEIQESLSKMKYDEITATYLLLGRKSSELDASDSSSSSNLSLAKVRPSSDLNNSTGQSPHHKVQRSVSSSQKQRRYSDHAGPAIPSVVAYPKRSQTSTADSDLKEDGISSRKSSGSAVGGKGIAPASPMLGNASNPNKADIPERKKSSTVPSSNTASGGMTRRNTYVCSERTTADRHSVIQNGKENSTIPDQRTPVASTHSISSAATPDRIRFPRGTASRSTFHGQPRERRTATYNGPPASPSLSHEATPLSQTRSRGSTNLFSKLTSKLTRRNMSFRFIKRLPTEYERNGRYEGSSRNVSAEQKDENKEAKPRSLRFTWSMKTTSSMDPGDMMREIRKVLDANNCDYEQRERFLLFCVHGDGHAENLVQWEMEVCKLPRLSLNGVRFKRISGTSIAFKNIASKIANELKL

[4] = target: T1, Serine/threonine-protein kinase D2 (Homo sapiens) (UniProt Q9BZL6); assay: Inhibition of human PRKD2 at 1.82 nM by HotSpot assay relative to control
T1 sequence (whole entry): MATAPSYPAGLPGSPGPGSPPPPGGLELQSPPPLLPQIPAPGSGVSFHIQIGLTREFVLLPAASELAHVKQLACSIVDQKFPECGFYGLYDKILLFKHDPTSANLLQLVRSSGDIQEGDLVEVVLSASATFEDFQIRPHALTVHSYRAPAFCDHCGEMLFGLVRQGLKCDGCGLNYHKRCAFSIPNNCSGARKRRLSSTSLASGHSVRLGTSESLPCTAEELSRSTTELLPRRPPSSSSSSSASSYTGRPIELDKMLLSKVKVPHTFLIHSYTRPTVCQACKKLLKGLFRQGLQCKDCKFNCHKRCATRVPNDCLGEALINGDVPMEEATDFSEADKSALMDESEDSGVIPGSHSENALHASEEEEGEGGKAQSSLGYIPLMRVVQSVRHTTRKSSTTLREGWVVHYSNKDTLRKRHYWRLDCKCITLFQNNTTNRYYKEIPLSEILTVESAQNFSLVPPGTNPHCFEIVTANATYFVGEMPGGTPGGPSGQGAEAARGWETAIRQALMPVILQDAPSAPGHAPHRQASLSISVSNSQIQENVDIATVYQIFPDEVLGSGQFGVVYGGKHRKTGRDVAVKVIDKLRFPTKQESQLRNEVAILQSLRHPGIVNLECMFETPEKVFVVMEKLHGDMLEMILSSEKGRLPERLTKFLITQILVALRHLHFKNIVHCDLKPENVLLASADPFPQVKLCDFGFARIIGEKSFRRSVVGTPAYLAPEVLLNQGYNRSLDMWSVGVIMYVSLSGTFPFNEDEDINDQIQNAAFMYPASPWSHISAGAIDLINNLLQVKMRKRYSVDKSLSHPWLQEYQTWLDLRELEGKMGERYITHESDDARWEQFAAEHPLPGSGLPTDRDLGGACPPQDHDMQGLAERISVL

[5] = target: Protein kinase C alpha type (Homo sapiens) (UniProt P17252); assay: Inhibition of human PKCa at 1.82 nM by HotSpot assay relative to control
[6] = target: T2, Serine/threonine-protein kinase DCLK2 (Homo sapiens) (UniProt Q8N568); assay: Inhibition of human DCAMKL2 at 1.82 nM by HotSpot assay relative to control
T2 sequence (whole entry): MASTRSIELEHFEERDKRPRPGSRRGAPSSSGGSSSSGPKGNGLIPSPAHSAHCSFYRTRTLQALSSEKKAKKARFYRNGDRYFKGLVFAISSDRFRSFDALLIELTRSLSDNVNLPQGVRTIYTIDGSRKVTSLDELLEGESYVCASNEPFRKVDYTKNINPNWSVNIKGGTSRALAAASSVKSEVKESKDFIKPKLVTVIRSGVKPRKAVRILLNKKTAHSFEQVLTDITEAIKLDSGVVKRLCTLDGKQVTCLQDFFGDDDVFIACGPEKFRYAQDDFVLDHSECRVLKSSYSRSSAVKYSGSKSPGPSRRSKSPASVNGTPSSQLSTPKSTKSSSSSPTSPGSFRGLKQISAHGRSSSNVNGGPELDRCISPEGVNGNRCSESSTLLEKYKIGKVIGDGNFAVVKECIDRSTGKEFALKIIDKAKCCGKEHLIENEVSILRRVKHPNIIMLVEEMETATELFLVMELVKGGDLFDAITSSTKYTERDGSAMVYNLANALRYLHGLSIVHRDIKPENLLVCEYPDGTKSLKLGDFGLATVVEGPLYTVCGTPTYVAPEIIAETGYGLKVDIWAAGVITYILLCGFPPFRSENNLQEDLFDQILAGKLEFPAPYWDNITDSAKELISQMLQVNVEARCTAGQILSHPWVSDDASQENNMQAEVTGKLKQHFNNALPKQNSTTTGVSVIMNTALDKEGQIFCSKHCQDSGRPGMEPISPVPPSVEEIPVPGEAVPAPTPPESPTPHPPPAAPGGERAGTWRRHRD

[7] = target: T3, cGMP-dependent protein kinase 1 (Homo sapiens) (UniProt Q13976); assay: Inhibition of human PKG1a at 1.82 nM by HotSpot assay relative to control
T3 sequence (whole entry): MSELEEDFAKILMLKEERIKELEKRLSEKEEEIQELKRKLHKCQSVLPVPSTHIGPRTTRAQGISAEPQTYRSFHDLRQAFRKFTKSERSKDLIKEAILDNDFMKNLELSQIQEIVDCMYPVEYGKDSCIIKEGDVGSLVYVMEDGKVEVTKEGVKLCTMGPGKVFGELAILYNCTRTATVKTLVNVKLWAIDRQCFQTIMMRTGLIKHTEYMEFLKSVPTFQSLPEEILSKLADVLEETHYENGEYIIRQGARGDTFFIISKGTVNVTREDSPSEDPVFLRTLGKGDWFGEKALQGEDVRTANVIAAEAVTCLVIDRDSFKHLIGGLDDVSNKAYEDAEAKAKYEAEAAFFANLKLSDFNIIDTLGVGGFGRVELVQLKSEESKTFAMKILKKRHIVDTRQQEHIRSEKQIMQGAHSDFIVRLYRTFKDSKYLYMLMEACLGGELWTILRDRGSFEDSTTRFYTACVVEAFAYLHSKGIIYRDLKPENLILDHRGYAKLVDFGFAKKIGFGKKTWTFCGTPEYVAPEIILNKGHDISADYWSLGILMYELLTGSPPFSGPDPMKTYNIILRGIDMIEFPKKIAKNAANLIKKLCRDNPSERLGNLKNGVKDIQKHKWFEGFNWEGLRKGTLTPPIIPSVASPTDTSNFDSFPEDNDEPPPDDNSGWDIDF

Receptor tyrosine-protein kinase erbB-4 (Homo sapiens), sequence (Q15303 whole entry): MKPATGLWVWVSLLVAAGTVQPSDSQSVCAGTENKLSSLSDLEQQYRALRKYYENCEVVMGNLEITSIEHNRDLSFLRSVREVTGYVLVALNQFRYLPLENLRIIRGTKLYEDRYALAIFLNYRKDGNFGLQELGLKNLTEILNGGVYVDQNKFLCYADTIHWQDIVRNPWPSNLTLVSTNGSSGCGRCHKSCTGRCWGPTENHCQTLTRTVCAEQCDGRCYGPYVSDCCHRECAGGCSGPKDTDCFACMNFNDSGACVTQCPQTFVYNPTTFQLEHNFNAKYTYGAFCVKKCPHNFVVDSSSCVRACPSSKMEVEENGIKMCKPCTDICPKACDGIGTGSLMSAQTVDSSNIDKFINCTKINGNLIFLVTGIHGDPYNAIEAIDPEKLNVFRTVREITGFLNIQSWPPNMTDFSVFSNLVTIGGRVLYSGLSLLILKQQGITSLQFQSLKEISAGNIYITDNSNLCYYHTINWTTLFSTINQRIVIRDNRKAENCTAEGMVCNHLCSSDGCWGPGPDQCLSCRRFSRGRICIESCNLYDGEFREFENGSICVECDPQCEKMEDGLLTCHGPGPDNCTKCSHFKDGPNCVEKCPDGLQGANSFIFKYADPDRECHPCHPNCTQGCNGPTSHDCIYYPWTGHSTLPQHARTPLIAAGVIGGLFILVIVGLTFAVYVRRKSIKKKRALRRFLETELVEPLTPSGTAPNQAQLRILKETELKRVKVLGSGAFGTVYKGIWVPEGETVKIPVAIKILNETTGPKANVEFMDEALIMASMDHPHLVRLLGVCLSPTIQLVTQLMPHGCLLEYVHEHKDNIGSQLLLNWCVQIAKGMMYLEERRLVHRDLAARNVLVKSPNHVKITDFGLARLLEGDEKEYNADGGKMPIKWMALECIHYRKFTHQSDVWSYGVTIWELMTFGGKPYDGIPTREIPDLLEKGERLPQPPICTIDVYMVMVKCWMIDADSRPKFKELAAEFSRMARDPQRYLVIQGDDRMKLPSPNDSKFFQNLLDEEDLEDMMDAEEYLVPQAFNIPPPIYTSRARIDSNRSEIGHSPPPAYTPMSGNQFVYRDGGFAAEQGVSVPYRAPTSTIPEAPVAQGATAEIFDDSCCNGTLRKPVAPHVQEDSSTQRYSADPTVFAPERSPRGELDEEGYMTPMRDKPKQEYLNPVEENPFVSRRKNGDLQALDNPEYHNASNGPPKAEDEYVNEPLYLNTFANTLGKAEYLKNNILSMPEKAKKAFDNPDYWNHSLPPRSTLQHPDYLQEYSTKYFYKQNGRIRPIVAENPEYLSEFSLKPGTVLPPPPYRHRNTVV
Ribosomal protein S6 kinase beta-1 (Homo sapiens), sequence (P23443 whole entry, looked up): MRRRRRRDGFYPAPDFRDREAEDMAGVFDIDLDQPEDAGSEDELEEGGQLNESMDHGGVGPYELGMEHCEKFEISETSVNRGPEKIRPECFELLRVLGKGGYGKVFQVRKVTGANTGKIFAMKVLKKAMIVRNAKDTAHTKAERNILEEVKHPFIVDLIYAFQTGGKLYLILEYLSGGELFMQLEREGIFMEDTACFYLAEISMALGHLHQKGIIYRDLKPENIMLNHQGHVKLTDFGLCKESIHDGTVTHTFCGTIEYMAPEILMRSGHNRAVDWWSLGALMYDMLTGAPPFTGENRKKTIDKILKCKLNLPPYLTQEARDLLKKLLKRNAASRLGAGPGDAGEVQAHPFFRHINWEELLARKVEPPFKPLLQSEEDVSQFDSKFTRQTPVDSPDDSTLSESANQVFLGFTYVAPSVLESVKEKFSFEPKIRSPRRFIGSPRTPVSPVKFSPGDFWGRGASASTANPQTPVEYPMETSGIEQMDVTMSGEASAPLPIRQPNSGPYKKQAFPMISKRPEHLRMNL

inhibition [1] [%]	inhibition [2] [%]	inhibition [3] [%]	inhibition [4] [%]	inhibition [5] [%]	inhibition [6] [%]	inhibition [7] [%]	SMILES
2.92	–	–	–	–	–	–	C[C@]1(O)C[C@@H](c2nc(-c3ccc4ccc(-c5ccccc5)nc4c3)c3c(N)nccn32)C1
–	-5.56	1.57	2.22	-5.95	3.94	5.76	C[C@@]1(C(=O)Nc2ccc(F)nc2)CCCN1c1nc(Nc2cc(C3CC3)n[nH]2)c2cccn2n1
